{"source": "patent US20090269394A1", "about": "“METHODS AND COMPOSITIONS FOR TREATING ONCHOMYCOSIS” (priority 2008, published 2009)", "key": {"Epidermophyton floccosum [1]": {"test_system": "Epidermophyton floccosum", "assay": "MIC/MFC microtiter broth dilution", "format": "cell-based", "details": "n = 6 isolates; NB-002 as μg CPC/ml"}, "T. violaceum": {"test_system": "T. violaceum", "assay": "MIC against species that cause tinea capitis", "format": "cell-based", "details": "T. violaceum n = 10"}, "Chaetomium spp.": {"test_system": "Chaetomium spp.", "assay": "MIC against rare onychomycosis pathogens (CLSI M 38-A)", "format": "cell-based", "details": "3 isolates; NB-002 as μg CPC/ml", "source_text": "(§1) Methods: All fungi were from patients, many of which had onychomycosis or another tinea infection."}, "Scedosporium spp.": {"test_system": "Scedosporium spp.", "assay": "MIC against rare onychomycosis pathogens (CLSI M 38-A)", "format": "cell-based", "details": "5 isolates; NB-002 as μg CPC/ml", "source_text": "as §1"}, "Paecilomyces spp.": {"test_system": "Paecilomyces spp.", "assay": "MIC against rare onychomycosis pathogens (CLSI M 38-A)", "format": "cell-based", "details": "4 isolates; NB-002 as μg CPC/ml", "source_text": "as §1"}, "Epicoccum nigrum": {"test_system": "Epicoccum nigrum", "assay": "MIC against rare onychomycosis pathogens (CLSI M 38-A)", "format": "cell-based", "details": "3 isolates; NB-002 as μg CPC/ml", "source_text": "as §1"}, "Phoma sp.": {"test_system": "Phoma sp.", "assay": "MIC against rare onychomycosis pathogens (CLSI M 38-A)", "format": "cell-based", "details": "3 isolates; NB-002 as μg CPC/ml", "source_text": "as §1"}, "Trichophyton verrucosum": {"test_system": "Trichophyton verrucosum", "assay": "MIC against rare onychomycosis pathogens (CLSI M 38-A)", "format": "cell-based", "details": "3 isolates; NB-002 as μg CPC/ml", "source_text": "as §1"}, "Trichophyton soundanense": {"test_system": "Trichophyton soundanense", "assay": "MIC against rare onychomycosis pathogens (CLSI M 38-A)", "format": "cell-based", "details": "3 isolates; NB-002 as μg CPC/ml", "source_text": "as §1"}, "Acremonium spp.": {"test_system": "Acremonium spp.", "assay": "MIC against rare onychomycosis pathogens (CLSI M 38-A)", "format": "cell-based", "details": "5 isolates; NB-002 as μg CPC/ml", "source_text": "as §1"}, "Alternaria spp.": {"test_system": "Alternaria spp.", "assay": "MIC against rare onychomycosis pathogens (CLSI M 38-A)", "format": "cell-based", "details": "3 isolates; NB-002 as μg CPC/ml", "source_text": "as §1"}, "Curvularia spp.": {"test_system": "Curvularia spp.", "assay": "MIC against rare onychomycosis pathogens (CLSI M 38-A)", "format": "cell-based", "details": "3 isolates; NB-002 as μg CPC/ml", "source_text": "as §1"}, "Aspergillus spp.": {"test_system": "Aspergillus spp.", "assay": "MIC against rare onychomycosis pathogens (CLSI M 38-A)", "format": "cell-based", "details": "5 isolates; NB-002 as μg CPC/ml", "source_text": "as §1"}, "Trichophyton rubrum [2]": {"test_system": "Trichophyton rubrum", "format": "cell-based", "details": "10^7 conidia plated; NBD031-c; drug plate 0.125 μg/ml"}, "T. rubrum": {"test_system": "T. rubrum", "assay": "Time-kill experiments on mycelia and microconidia", "format": "cell-based, Trichophyton rubrum", "details": "16×MIC, up to 24 hours, nongrowth conditions (FIG. 10)", "procedure": "Time-kill experiments. […] Part of the conidial suspension was pelleted and resuspended in RPMI 1640 medium and grown for 16-18 hours overnight at room temperature to allow germination of microconidia. After germination, the hyphae were collected by centrifugation and resuspended in distilled water. […] Colony-forming units were counted after four days of incubation at 35° C."}, "M. audouinii": {"test_system": "M. audouinii", "assay": "MIC against species that cause tinea capitis", "format": "cell-based", "details": "M. audouinii n = 10"}, "[3]": {"test_system": "Trichophyton mentagrophytes", "assay": "microbe, parasite or virus in culture", "format": "cell-based", "procedure": "(§2) Phenotypically resistant isolates were tested for MICs and compared to parental MICs."}, "Trichophyton rubrum [4]": {"test_system": "Trichophyton rubrum", "assay": "microbe, parasite or virus in culture", "format": "cell-based", "procedure": "as §2"}, "Epidermophyton floccosum [5]": {"test_system": "Epidermophyton floccosum", "assay": "microbe, parasite or virus in culture", "format": "cell-based", "details": "read-out: Final MIC", "procedure": "as §2"}, "Microsporum canis": {"test_system": "Microsporum canis", "assay": "MIC/MFC microtiter broth dilution", "format": "cell-based"}, "[6]": {"test_system": "Trichophyton mentagrophytes", "format": "cell-based", "details": "10^7 conidia plated; NBD012-d; drug plate 0.0625 μg/ml"}, "[7]": {"test_system": "Trichophyton mentagrophytes", "assay": "MIC/MFC microtiter broth dilution", "format": "cell-based"}, "Trichophyton tonsurans": {"test_system": "Trichophyton tonsurans", "assay": "MIC/MFC microtiter broth dilution", "format": "cell-based"}, "[8]": {"test_system": "Candida albicans isolates", "assay": "MIC/MFC microtiter broth dilution", "format": "cell-based", "details": "NB-002 as μg CPC/ml; for MIC90: Candida albicans, read-out: MIC90"}, "[9]": {"details": "M. canis (n = 5), NB-002 as μg CPC/ml"}, "[10]": {"details": "M. canis n = 10 (tinea capitis species)"}, "[11]": {"details": "n = 14 isolates, NB-002 as μg CPC/ml"}, "[12]": {"details": "T. tonsurans (n = 6), NB-002 as μg CPC/ml"}, "[13]": {"details": "T. tonsurans n = 10 (tinea capitis species)"}, "[14]": {"details": "Azole-Resistant isolates (n = 24)"}, "[15]": {"details": "Azole-Susceptible isolates (n = 10)"}}, "note": "Read-outs that look alike come from different tables or passages of the source."}
{"compound": "CN(C/C=C/C#CC(C)(C)C)Cc1cccc2ccccc12", "note": "[Terbinafine]", "values": [{"measurement": "MFC Range", "setting": "Epidermophyton floccosum [1]", "result": "0.0313 to 1", "unit": "µg/mL"}, {"measurement": "MIC range", "setting": "Epidermophyton floccosum [1]", "result": "0.0625 to 0.25", "unit": "µg/mL"}, {"measurement": "MIC50", "setting": "T. violaceum", "result": 0.03, "unit": "µg/mL"}, {"measurement": "MIC90", "setting": "T. violaceum", "result": 0.03, "unit": "µg/mL"}, {"measurement": "MIC range", "setting": "T. violaceum; in µg/mL", "result": "0.008-0.03"}, {"measurement": "MIC range", "setting": "Chaetomium spp.", "result": "1 to 2", "unit": "µg/mL"}, {"measurement": "MIC range", "setting": "Scedosporium spp.", "result": ">2", "unit": "µg/mL"}, {"measurement": "MIC range", "setting": "Paecilomyces spp.", "result": "0.25 to 0.5", "unit": "µg/mL"}, {"measurement": "MIC range", "setting": "Epicoccum nigrum", "result": "0.03 to 0.06", "unit": "µg/mL"}, {"measurement": "MIC range", "setting": "Phoma sp.", "result": 0.03, "unit": "µg/mL"}, {"measurement": "MIC range", "setting": "Trichophyton verrucosum", "result": "≦0.004-0.015 ug/ml"}, {"measurement": "MIC range", "setting": "Trichophyton soundanense", "result": "≦0.004 ug/ml"}, {"measurement": "MIC range", "setting": "Acremonium spp.", "result": "0.125 to 1", "unit": "µg/mL"}, {"measurement": "MIC range", "setting": "Alternaria spp.", "result": "1 to 2", "unit": "µg/mL"}, {"measurement": "MIC range", "setting": "Curvularia spp.", "result": "0.03 to 1", "unit": "µg/mL"}, {"measurement": "MIC range", "setting": "Aspergillus spp.", "result": "0.03 to 0.25", "unit": "µg/mL"}, {"measurement": "# CFU recovered", "setting": "Trichophyton rubrum [2]", "result": 1}, {"measurement": "reduction of colony counts / activity on mycelia and microconidia", "setting": "T. rubrum", "result": "no activity"}, {"measurement": "MIC50", "setting": "M. audouinii", "result": 0.06, "unit": "µg/mL"}, {"measurement": "MIC90", "setting": "M. audouinii", "result": 0.06, "unit": "µg/mL"}, {"measurement": "MIC range", "setting": "M. audouinii; in µg/mL", "result": "0.03-0.06"}, {"measurement": "MIC", "setting": "[3]; read-out: Final MIC, isolate NBD012-a, selected on NB-002 drug plate 8 μg/ml", "result": 0.031, "unit": "µg/mL"}, {"measurement": "MIC", "setting": "[3]; read-out: Final MIC, isolate NBD012-b, selected on NB-002 drug plate 16 μg/ml", "result": 0.031, "unit": "µg/mL"}, {"measurement": "MIC", "setting": "[3]; read-out: Final MIC, isolate NBD012-c, selected on NB-002 drug plate 32 μg/ml", "result": 0.016, "unit": "µg/mL"}, {"measurement": "MIC", "setting": "[3]; read-out: Final MIC, isolate NBD012-d, selected on terbinafine drug plate 0.0625 μg/ml", "result": 0.031, "unit": "µg/mL"}, {"measurement": "MIC", "setting": "[3]; read-out: Final MIC, isolate NBD013-a, selected on itraconazole drug plate […]", "result": 0.016, "unit": "µg/mL"}, {"measurement": "MIC", "setting": "[3]; read-out: Final MIC, isolate NBD014-a, selected on NB-002 drug plate 32 μg/ml", "result": 0.016, "unit": "µg/mL"}, {"measurement": "MIC", "setting": "Trichophyton rubrum [4]; read-out: Final MIC, isolate NBD031-a, selected on NB-002 drug plate 16 μg/ml", "result": 0.016, "unit": "µg/mL"}, {"measurement": "MIC", "setting": "Trichophyton rubrum [4]; read-out: Final MIC, isolate NBD031-b, selected on itraconazole drug plate 0.125 μg/ml", "result": 0.016, "unit": "µg/mL"}, {"measurement": "MIC", "setting": "Trichophyton rubrum [4]; read-out: Final MIC, isolate NBD031-c, selected on terbinafine drug plate 0.125 μg/ml", "result": 0.016, "unit": "µg/mL"}, {"measurement": "MIC", "setting": "Epidermophyton floccosum [5]", "result": 0.016, "unit": "µg/mL"}, {"measurement": "MFC Range", "setting": "Microsporum canis; [9]", "result": "0.06 to 0.12", "unit": "µg/mL"}, {"measurement": "MIC range", "setting": "Microsporum canis; [9]", "result": "0.004 to 0.03", "unit": "µg/mL"}, {"measurement": "MIC50", "setting": "Microsporum canis; [10]", "result": 0.06, "unit": "µg/mL"}, {"measurement": "MIC90", "setting": "Microsporum canis; [10]", "result": 0.06, "unit": "µg/mL"}, {"measurement": "MIC range", "setting": "Microsporum canis; M. canis n = 10 (tinea capitis species), in µg/mL", "result": 0.06}, {"measurement": "# CFU recovered", "setting": "[6]", "result": 2}, {"measurement": "MIC90", "setting": "[7]; Trichophyton mentagrophytes", "result": 0.125, "unit": "µg/mL"}, {"measurement": "MIC50", "setting": "[7]; Trichophyton mentagrophytes, read-out: MIC50", "result": 0.0313, "unit": "µg/mL"}, {"measurement": "MFC50", "setting": "[7]; [11]", "result": 0.25, "unit": "µg/mL"}, {"measurement": "MFC90", "setting": "[7]; [11]", "result": ">1", "unit": "µg/mL"}, {"measurement": "MIC range", "setting": "[7]; [11]", "result": "0.0313 to 0.25", "unit": "µg/mL"}, {"measurement": "MFC Range", "setting": "Trichophyton tonsurans; [12]", "result": "0.06 to 0.12", "unit": "µg/mL"}, {"measurement": "MIC range", "setting": "Trichophyton tonsurans; [12]", "result": "0.008 to 0.015", "unit": "µg/mL"}, {"measurement": "MIC50", "setting": "Trichophyton tonsurans; [13]", "result": 0.016, "unit": "µg/mL"}, {"measurement": "MIC90", "setting": "Trichophyton tonsurans; [13]", "result": 0.016, "unit": "µg/mL"}, {"measurement": "MIC range", "setting": "Trichophyton tonsurans; T. tonsurans n = 10 (tinea capitis species), in µg/mL", "result": "0.008-0.016"}, {"measurement": "MFC90", "setting": "[8]; [14]", "result": ">1", "unit": "µg/mL"}, {"measurement": "MFC90", "setting": "[8]; [15]", "result": ">1", "unit": "µg/mL"}, {"measurement": "MIC90", "setting": "[8]; [14]", "result": "> 1", "unit": "µg/mL"}, {"measurement": "MIC90", "setting": "[8]; [15]", "result": "> 1", "unit": "µg/mL"}]}
